Measurements from patent US20230165922A1, “APPLICATION OF RADIX GENTIANAE MACROPHYLLAE AND MONOMER COMPOUND THEREOF IN KILLING MITES” (SMILEBIOTECK ZHUHAI LIMITED, priority 2020, published 2023).

Legend:
D.folliculorum [1] = experiment: Preliminary in-vitro screening of monomer compounds for effect on survival time of Demodex mites; settings: 20° C., humidity 96%; for Survival time (hours) of D.folliculorum in vitro: 35 µL monomer compound solution in 10% DMSO, observed every 2 hours, mean ± SD
Excerpt: The names and molecular formulas of the monomer compounds are shown in the following table: The monomer compounds were purchased from Chengdu Herbpurify Co., Ltd., and were standard references.
The powders of the monomer compounds shown in Table 2 were separately dissolved in dimethyl sulfoxide (DMSO), and then diluted with sterilized double-distilled water to make the final concentration of DMSO 10%, which could not shorten the survival time of Demodex mites as per a controlled study. The negative control group received DMSO mixed with sterilized water at a final concentration of 10%.
As in Example 1, 35 µL of each solution was added to a glass slide, and the survival of the mites was observed under an optical microscope every 2 hours. During the experiment, the Demodex mites were observed by two skilled operators separately for the activities (bodies, limbs and the like) through the microscope to determine whether they were dead or not. If the two operators gave different results, the survival status was determined independently by a third skilled operator. The in-vitro culture was conducted in a climatic chamber at a temperature of 20° C. and a humidity of 96%. During the observation, the glass slides were transported in a wet box to ensure the high humidity.
In this experiment, statistical analysis was conducted using SPSS22.0 statistical software, normality test was conducted using Shapiro-Wilk test, and homogeneity of variance test was conducted using Bartlett’s test.
Effects of monomer compounds of traditional Chinese medicine on survival time of D.folliculorum The in-vitro culture of the Demodex mites was conducted in an environment at a humidity of 96% and a temperature of 20° C. The survival of the Demodex mites was observed dynamically and the survival time was recorded.

D.folliculorum [2] = experiment: In-vitro culture of Demodex mites with traditional Chinese medicine decoctions (survival time); settings: 20° C., humidity 96%
Protocol: The ethical guidelines of “The Declaration of Helsinki” and “Measures for the Ethical Review of Biomedical Research Involving Humans” were strictly followed in this study. Demodex mites from patients diagnosed with ocular Demodex infestation were collected in this study. Subjects who met the inclusion criteria were enrolled after giving an informed conversation and signing an informed consent.
The detection of Demodex mites was performed according to the conventional method of eyelash microscopy (12,20). 3 eyelashes were collected from each eyelid, with a total of 12 eyelashes. […] Demodex mites in all periods were counted and classified according to morphology (specific standard: D.brevis with a head-to-body ratio of 1:1, and D.folliculorum with a head-to-body ratio of 1:3 to 1:4). […]
On the basis of the above detection of Demodex mites, 35 µL of the solutions was separately added to the slides, and the survival of the mites was observed every 2 hours. […] If the two operators gave different results, the survival status was determined independently by a third skilled operator. […]
60 g of dried ready-to-use forms was weighed using an electronic balance, and soaked in water with an amount of 10 times (600 mL) in a marmite overnight. […]

SMILES: C=C[C@@H]1C2=CCOC(=O)C2=CO[C@H]1O[C@@H]1O[C@H](CO)[C@@H](O)[C@H](O)[C@H]1O [Gentiopicroside]
- Survival time (hours) of D.folliculorum in vitro (D.folliculorum [1]): 37.31 ± 36.06 h
- Survival time (hours) of D.folliculorum in vitro (D.folliculorum [1]; listed as gentiopicroside): 37.31 ± 36.06 h
- Effect on in-vitro survival time of Demodex mites versus 10% DMSO negative control (D.folliculorum [1]; compared with 10% DMSO solution): significantly shorter

SMILES: C[C@@H]1[C@H]2[C@H](O[C@@H]3O[C@H](CO)[C@@H](O)[C@H](O)[C@H]3O)OC=C(C(=O)O)[C@H]2C[C@@H]1O [Loganic acid]
- Survival time (hours) of D.folliculorum in vitro (D.folliculorum [1]): 61.56 ± 22.84 h

SMILES: CC1=CCC(O)(C(C)C)CC1 (centres unmarked) [T40, terpinen-4-ol]
- Survival time (hours) of D.folliculorum in vitro (D.folliculorum [2]; 35 µL solution on slide, decoctions of 60 g medicine made up to 100 mL water, TTO and T4O 10% in sterilized water, observed every 2 hours, mean ± SD): 40.50 ± 13.12 h
- Difference in in-vitro survival time of Demodex mites versus control groups (statistical comparison) (D.folliculorum [2]; Bonferroni comparison with negative control sterilized water (and TTO, T40 groups)): did not show significant differences

SMILES: COC(=O)c1c2c(c3ccccc3c1O)OC(C)(C)C=C2 [Mollugin]
- Survival time (hours) of D.folliculorum in vitro (D.folliculorum [1]): 61.10 ± 25.12 h

SMILES: C=C[C@H]1[C@H](O[C@@H]2O[C@H](CO)[C@@H](O)[C@H](O)[C@H]2O)OC=C2C(=O)OCC[C@]21O [Swertiamarin]
- Survival time (hours) of D.folliculorum in vitro (D.folliculorum [1]): 59.68 ± 10.97 h

SMILES: COc1cc2ccc(=O)oc2cc1O [Scopoletin]
- Survival time (hours) of D.folliculorum in vitro (D.folliculorum [1]): 54.67 ± 25.66 h

SMILES: C=C[C@H]1[C@H](O[C@@H]2O[C@H](CO)[C@@H](O)[C@H](O)[C@H]2O)OC=C2C(=O)OCC[C@H]21 [Sweroside]
- Survival time (hours) of D.folliculorum in vitro (D.folliculorum [1]): 60.79 ± 25.98 h

SMILES: C=C(C)[C@@H]1CC[C@]2(C)[C@H](CC=C3[C@@H]4[C@@H](C)[C@H](C)CC[C@]4(C)CC[C@]32C)[C@@]1(C)CCC(=O)O [Roburic acid]
- Survival time (hours) of D.folliculorum in vitro (D.folliculorum [1]): 63.41 ± 12.20 h
